According to publication PMC10518255, “A first-in-class pan-lysyl oxidase inhibitor impairs stromal remodeling and enhances gemcitabine response and survival in pancreatic cancer” (Nature Cancer, 2023):
“And” between values parts separate entries of the source, which are not always exact repeats. Equal values may be shown once.

Key:
KPC PDAC tumors = experiment: Picrosirius red staining of KPC tumors (Fig. 1g); type: in vivo, mouse; settings: KPC tumour bearing mice, Gem 100 mg/kg twice weekly i.p. for 15 cycles, individual animals
Excerpt: Fig. 1 Characterization of LOX family in PDAC. a,b, Kaplan–Meier curves for 5-year overall survival for lysyl oxidase family scores in the APGI/ICGC (low, n = 90 patients; high, n = 89 patients) (a) and TCGA (low, n = 57 patients; high, n = 58 patients) (b) PDAC datasets. Lines represent upper and lower tertiles. The lysyl oxidase family expression score is weighted by the Cox proportional hazards model coefficients for each family member. P values determined by log-rank (Mantel–Cox) test. c, Representative images of picrosirius red stained tumor cores from APGI/ICGC tumor microarrays. […] P values determined by log-rank (Mantel–Cox) test. e, Human LOX and LOXL2 plasma concentrations in healthy (n = 30 patient samples) and patients with PDAC (n = 12 patient samples) determined by SiMoA. […] Scale bars, 100 μm. g, Quantitative comparison of picrosirius red staining in tumors from KPC tumor-bearing mice treated with either saline vehicle or gemcitabine (n = 10 biologically independent animals per group). […] Two-tailed P values determined by unpaired, nonparametric t-tests with a Mann–Whitney U-test correction (comparison between two groups). […]

[1] = Tissue concentration by LC-MS/MS after single oral dose of 30 mg/kg (plasma, kidney, liver, lung, heart, ear; Extended Data Fig. 3e)
Experimental: PXS-5505 concentration, as measured by LC–MS/MS, in rat plasma, kidney, liver, lung, heart and ear samples following a single oral dose of 30 mg/kg (n = 3 independent animals). Data presented as mean values +/− SD. f. Plasma concentration profile over time in mice following oral administration of PXS-5505 (30 mg/kg) (n = 3 independent animals) g. Schematic of amplex red coupled fluorometric lysyl oxidase family activity assay whereby putrescine (put) is used as a substrate resulting in the release of H2O2 and its subsequent catalysis by horseradish peroxidase (HRP) to […] amplex red to resorufin resulting in a fluorescently detectable signal. […] Data presented as mean values +/− SD. h. qRT-PCR showing in vitro 48 hour treatment of KPC CAFs or cancer cells with 30 μM PXS-5505 or vehicle control (n = 3 biological repeats with 3 technical replicates per biological repeat). Data presented as mean values +/− SD. Relative fold expression of lysyl oxidase family members from PXS-5505 treated samples compared to control were determined by the 2^–∆∆Ct approach. p-values determined by unpaired, nonparametric t-test with a Mann–Whitney U correction (comparison between two groups). i. 2D in vitro cell viability assay (MTS assay) for KPC CAFs and CCs (n = 3 biological repeats with 3 technical replicates per biological repeat) in response to PXS-5505. Data presented as mean values +/− SD. Ordinary one-way ANOVA for multiple comparison test performed. j. 3D in vitro cell viability assay (MTS assay) for KPC CAFs and CCs (n = 3 biological repeats with 3 technical replicates per biological repeat) in response to PXS-5505. Data presented as mean values +/− SD. Ordinary one-way ANOVA for multiple comparison test performed. Source data

[2] = rat, single oral dose 30 mg/kg, 1 hr, n = 3

Nc1ccn([C@@H]2O[C@H](CO)[C@@H](O)C2(F)F)c(=O)n1 [Gem, gemcitabine]
picrosirius red staining in tumours (KPC PDAC tumors): 26.8678 and 24.1241 and 47.4949 and 47.2536 and 61.2999 and 20.5678 and 34.5947 and 25.1726 and 42.1276 and 82.533

Cl.Cl.NC/C=C(\F)CS(=O)(=O)c1cccc2cccnc12.O [PXS-5505, (Z)-3-fluoro-4-(quinolin-8-ylsulfonyl)but-2-en-1-amine dihydrochloride monohydrate]
tissue penetration ([1]; after oral administration): penetrates core and peripheral matrix-rich tissues (the ear pinnae) well
PXS-5505 concentration by LC-MS/MS, ear, Mean [1, 2]: 1911.2
PXS-5505 concentration by LC-MS/MS, heart, Mean [1, 2]: 5777.3
PXS-5505 concentration by LC-MS/MS, kidney, Mean [1, 2]: 19237.2
PXS-5505 concentration by LC-MS/MS, liver, Mean [1, 2]: 32467.6
PXS-5505 concentration by LC-MS/MS, lung, Mean [1, 2]: 954.9
PXS-5505 concentration by LC-MS/MS, plasma, Mean [1, 2]: 3609.6
